From patent US4010258A, “Microbial amylase inhibitor and preparation thereof with the use of streptomyces diasticus var. amylostaticus” (Ajinomoto Co., Inc., priority 1974, dated 1977)

Experiments:
amylase = settings: prior art statement; cited from earlier work
trypsin = assay: Action of various proteases on Amylostatin-A; type: in vitro ADME
chymotrypsin = chymotrypsin (Bos taurus, UniProt P00766); assay: Action of various proteases on Amylostatin-A; type: in vitro ADME
papain = biological target: T1, papain (Carica papaya, UniProt P00784); assay: Action of various proteases on Amylostatin-A; type: in vitro ADME
T1 sequence (P00784 134-345): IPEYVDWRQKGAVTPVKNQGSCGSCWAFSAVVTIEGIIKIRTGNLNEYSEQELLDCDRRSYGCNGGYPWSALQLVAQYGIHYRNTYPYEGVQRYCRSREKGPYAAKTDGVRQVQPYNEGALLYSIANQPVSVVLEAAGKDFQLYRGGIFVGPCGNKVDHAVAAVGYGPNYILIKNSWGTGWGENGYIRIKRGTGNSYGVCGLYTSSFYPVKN

pepsin = pepsin (Sus scrofa, UniProt P00791); assay: Action of various proteases on Amylostatin-A; type: in vitro ADME
Chain of pepsin (P00791 60-385): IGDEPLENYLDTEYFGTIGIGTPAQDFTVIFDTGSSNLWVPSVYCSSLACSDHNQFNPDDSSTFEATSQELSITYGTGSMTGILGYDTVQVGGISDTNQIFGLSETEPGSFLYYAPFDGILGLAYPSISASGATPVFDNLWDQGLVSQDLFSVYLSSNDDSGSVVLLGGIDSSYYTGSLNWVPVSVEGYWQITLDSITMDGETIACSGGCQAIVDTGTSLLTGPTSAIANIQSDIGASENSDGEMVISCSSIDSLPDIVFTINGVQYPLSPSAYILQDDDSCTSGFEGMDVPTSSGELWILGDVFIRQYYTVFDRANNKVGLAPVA

[1] = Stability in buffer solution (pH and heat); type: physicochemical
Solubility = type: physicochemical
[2] = tested on: digestion and absorption of starch; assay: Biological test on digestibility of starch; type: in vivo, male rats of Wistar strain; settings: rats, 4 hours
Procedure: An experiment concerning the inhibitory effect of Amylostatin-A on the digestion and absorption of starch in vivo was carried out using sound male rats of Wistar strain weighing from 250 to 300g. After they had been made to fast, receiving only water for 48 hours, 60 rats were selected and divided into 10 groups of each 5 or 10 as shown in Table 4.
Rats in control groups were given either 2.5 ml of an isotonic sodium chloride solution in which 300 mg of soluble starch (Wako Junyaku Co., Inc.) was dissolved or 2.5 ml of an isotonic sodium chloride solution in which 300 mg of corn starch (Japanese Pharmacopia) was suspended. The rats were subjected to a laparotomy, the solution was injected into the stomach and the incision site was sutured. Rats in test groups were given the same amount and kinds of solutions as given to the rats in control groups except that varying amounts of crude Amylostatin-A obtained according to the methods of Example 1 were added as shown in Table 4. The test solutions were administered in the same manner as the control solutions.
After the lapse of definite periods of time, all rats were again laparotomized at the site of the original incision and all contents of the stomach and small intestines were removed by washing with an isotonic sodium chloride solution. To these washings containing residual starch, 25 ml of 1N hydrochloric acid was added. The mixture was heated to carry the hydrolytic reaction to completion and the quantity of reducing sugar formed was determined by Somogyi's method.

[3] = tested on: bacterial α-amylase (crystalline); assay: Assay of amylase inhibitory activity (units); type: biochemical; settings: purified powdery preparation, Example 1
Procedure: The reaction mixture consisting of 4 ml of a 1.5% soluble starch solution in 0.1M acetate buffer solution at pH 5.5, 0.5 ml of distilled water and 0.5 ml of the amylase solution to be assayed (amylase or bacterial α-amylase (crystalline) ) is incubated at 37° C. for 10 minutes and the reaction is terminated by adding a mixture of 5:1 by volume of 0.5N acetic acid and 0.5N hydrochloric acid. From this solution, 0.2 ml is withdrawn and added to 5 ml of N/3000 iodine solution and the absorbency is measured at 660 nm. The amylase activity per one ml of the enzyme solution expressed in units is calculated as follows: [formula] in which D is the optical density of the enzyme solution and Do is the optical density of the control.
The reaction mixture consisting of 0.5 ml of 2 × 10^^-4 % of bacterial α-amylase (crystalline) and 0.5 ml of the solution of Amylostatin-A is incubated at 37° C. for 10 minutes. Any residual amylase activity is determined according to the method of assay of amylase activity described above. One unit of amylase inhibitory activity is defined as the amount of inhibitory activity necessary to inactivate one unit of amylase.

| Compound | amylase inhibitory activities (amylase) | inactivation of the inhibitory activity on amylase by protease (trypsin) | inactivation of the inhibitory activity on amylase by protease (chymotrypsin) | inactivation of the inhibitory activity on amylase by protease (papain) | inactivation of the inhibitory activity on amylase by protease (pepsin) | Stability ([1]; buffer solution, pH 1 to 12, 37° C. for 12 hours) | Stability ([1]; heated at 100° C. for 30 minutes, pH 1 to 12) | Solubility (Solubility; acetone) | Solubility (Solubility; chloroform) | Solubility (Solubility; ethanol) | Solubility (Solubility; methanol) | Solubility (Solubility; pyridine) | Solubility (Solubility; water) | residual % of starch (average) ([2]; 300 mg cornstarch into the stomach, 2.5 mg crude Amylostatin-A added) | residual % of starch (average) ([2]; 300 mg cornstarch into the stomach, 5 mg crude Amylostatin-A added) | residual % of starch (average) ([2]; 300 mg cornstarch into the stomach, 10 mg crude Amylostatin-A added) | residual % of starch (average) ([2]; 300 mg soluble starch (dissolved on heating) into the stomach, 5 mg crude Amylostatin-A added) | residual % of starch (average) ([2]; 300 mg soluble starch (dissolved on heating) into the stomach, 10 mg crude Amylostatin-A added) | amylase inhibitory activity [3] |
| --- | --- | --- | --- | --- | --- | --- | --- | --- | --- | --- | --- | --- | --- | --- | --- | --- | --- | --- | --- |
| OC[C@H]1NC(O)[C@H](O)[C@@H](O)[C@@H]1O (stereo partly shown) [Nojirimycin] | extremely low | – | – | – | – | – | – | – | – | – | – | – | – | – | – | – | – | – | – |
| Amylostatin-A | – | unable to inactivate | unable to inactivate | unable to inactivate | unable to inactivate | substantial stability | substantial stability | substantially insoluble | substantially insoluble | substantially insoluble | substantially insoluble | soluble | soluble | 82.5% | 93.6% | 92.5% | 63.8% | 65.7% | 3.5 × 10^4 units per mg |
